According to ChEMBL document CHEMBL1151350, “Uterotonic effect of Evodia rutaecarpa alkaloids” (1980):
Activity calls are given as the source filed them. No cut-off for these calls is given here.

How the values were obtained:
[1] = organism: Rattus norvegicus; experiment: In virto uterotonic activity in Sprague-Dawley rat uterus assessed as contraction at 20 ug/ml; format: functional, tissue-based
[2] = In virto uterotonic activity in Sprague-Dawley rat uterus expressed as g-force unit; format: functional
[3] = In virto uterotonic activity in Sprague-Dawley rat uterus assessed as contraction; format: functional
[4] = test system: Rattus norvegicus; experiment: In vivo uterotonic activity in iv dosed estrous Sprague-Dawley rat uterus assessed as contraction by sponge tipped catheter method; format: functional
[5] = organism: Rattus norvegicus; experiment: In virto uterotonic activity in Sprague-Dawley rat uterus assessed as contraction in presence of atropine; format: functional, tissue-based
[6] = test system: Rattus norvegicus; experiment: In vivo uterotonic activity in estrous Sprague-Dawley rat uterus assessed as maximum peak contraction at 2400 ug/kg, iv within 20 mins by sponge tipped catheter method; format: functional
[7] = organism: Rattus norvegicus; experiment: In virto uterotonic activity in Sprague-Dawley rat uterus assessed as contraction in presence of methysergide; format: functional, tissue-based

| Structure (SMILES) | Activity [1] | Activity [2] [g] | Activity [3] [µg/mL] | Activity [4] | Activity ([4]; record 2) [µg/kg] | Activity [5] | Activity [6] [mmHg] | Activity [7] |
| --- | --- | --- | --- | --- | --- | --- | --- | --- |
| CN1c2ccccc2C(=O)N2CCc3c([nH]c4ccccc34)[C@@H]21 | inactive |  |  |  |  |  |  |  |
| Cl.O=c1c2ccccc2nc2n1CCc1c-2[nH]c2ccccc12 [RUTAECARPINE HYDROCHLORIDE] |  | 0.72 | <1 |  |  |  |  |  |
| C[n+]1c2n(c(=O)c3ccccc31)CCc1c-2[nH]c2ccccc12.[Cl-] [DEHYDROEVODIAMINE CHLORIDE] |  | 2.15 | 0.6 | Dose-dependent effect | 80 | Active | 25.3 | Active |
